Values quoted from earlier work as cited in patent publication US20260151310A1, “COSMETIC FOR HAIR GROWTH, COSMETIC RAW MATERIAL AND COSMETIC, AND METHOD FOR PRODUCING THE SAME” (Teika Pharmaceutical Co., Ltd., priority 2021, published 2026).

System: hair density and hair thickness
Conditions: compared with positive control minoxidil; Non Patent Literature 1

## [O-][n+]1ccccc1[S-].[O-][n+]1ccccc1[S-].[Zn+2] [pyrithione zinc]
  Effect on hair density and hair thickness: less than half the effect of a positive control minoxidil
